Laboratory results published in ChEMBL document CHEMBL1201861, “Genomics of Drug Sensitity in Cancer screening data, Wellcome Trust Sanger Institute”.

What was measured:
Experiment in all cases: cells
COR-L88 = assay type: functional, cell-based; conditions: Homo sapiens;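 note: growth inhibition of COR-L88 cells, read out with a cell viability assay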
Description: SANGER: Inhibition of human COR-L88 cell growth in a cell viability assay.

Ca-Ski = assay type: functional, cell-based; conditions: Homo sapiens;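 note: cell viability assay measuring inhibition of Ca-Ski cell growth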
Description: SANGER: Inhibition of human Ca-Ski cell growth in a cell viability assay.

Ca9-22 = assay type: functional, cell-based, Homo sapiens; conditions: Homo sapiens, Ca9-22;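 note: growth inhibition of Ca9-22 cells, read out with a cell viability assay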
Description: SANGER: Inhibition of human Ca9-22 cell growth in a cell viability assay.

DMS-273 = assay type: functional, cell-based, Homo sapiens; conditions: Homo sapiens, DMS-273
Description: SANGER: Inhibition of human DMS-273 cell growth in a cell viability assay.

DOK = assay type: functional, cell-based, Homo sapiens; conditions: Homo sapiens, DOK;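 note: cell viability assay read-out, values reflect inhibition of cell growth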
Description: SANGER: Inhibition of human DOK cell growth in a cell viability assay.

DU-145 = assay type: functional, cell-based, Homo sapiens; conditions: Homo sapiens, DU-145
Description: SANGER: Inhibition of human DU-145 cell growth in a cell viability assay.

EW-11 = assay type: functional, cell-based, Homo sapiens; conditions: Homo sapiens, EW-11;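 note: growth inhibition of human EW-11 cells, measured with a cell viability assay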
Description: SANGER: Inhibition of human EW-11 cell growth in a cell viability assay.

GI-ME-N = assay type: functional, cell-based, Homo sapiens; conditions: Homo sapiens, GI-ME-N;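 note: growth inhibition of human GI-ME-N cells, read out with a cell viability assay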
Description: SANGER: Inhibition of human GI-ME-N cell growth in a cell viability assay.

GMS-10 = assay type: functional, cell-based, Homo sapiens; conditions: Homo sapiens, GMS-10;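 note: growth inhibition of GMS-10 cells, read out as cell viability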
Description: SANGER: Inhibition of human GMS-10 cell growth in a cell viability assay.

GT3TKB = assay type: functional, cell-based, Homo sapiens; conditions: Homo sapiens, GT3TKB;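 note: growth inhibition of the cell line, read out with a cell viability assay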
Description: SANGER: Inhibition of human GT3TKB cell growth in a cell viability assay.

HCC 2998 = assay type: functional, cell-based, Homo sapiens; conditions: Homo sapiens, HCC 2998;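 note: growth inhibition of human HCC2998 cells, measured with a cell viability read-out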
Description: SANGER: Inhibition of human HCC2998 cell growth in a cell viability assay.

HCT-116 = assay type: functional, cell-based, Homo sapiens; conditions: Homo sapiens, HCT-116
Description: SANGER: Inhibition of human HCT-116 cell growth in a cell viability assay.

HMV-2 cell line = assay type: functional, cell-based, Homo sapiens; conditions: Homo sapiens, HMV-2;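 note: growth inhibition of HMV-II cells, read out with a cell viability assay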
Description: SANGER: Inhibition of human HMV-II cell growth in a cell viability assay.

Huh-7 = assay type: functional, cell-based, Homo sapiens; conditions: Homo sapiens, Huh-7;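 note: HuH-7 cell growth inhibition, read out with a cell viability assay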
Description: SANGER: Inhibition of human HuH-7 cell growth in a cell viability assay.

IGR-1 = assay type: functional, cell-based, Homo sapiens; conditions: Homo sapiens, IGR-1;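 note: growth inhibition of human IGR-1 cells, read out with a cell viability assay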
Description: SANGER: Inhibition of human IGR-1 cell growth in a cell viability assay.

IST-MEL1 = assay type: functional, cell-based, Homo sapiens; conditions: Homo sapiens, IST-MEL1;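 note: growth inhibition of the cell line, read out with a cell viability assay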
Description: SANGER: Inhibition of human IST-MEL1 cell growth in a cell viability assay.

IST-MES1 = assay type: functional, cell-based, Homo sapiens; conditions: Homo sapiens, IST-MES1;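 note: growth inhibition of IST-MES1 cells, measured with a cell viability assay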
Description: SANGER: Inhibition of human IST-MES1 cell growth in a cell viability assay.

KINGS-1 = assay type: functional, cell-based, Homo sapiens; conditions: Homo sapiens, KINGS-1;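 note: cell viability assay measuring suppression of KINGS-1 cell growth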
Description: SANGER: Inhibition of human KINGS-1 cell growth in a cell viability assay.

KYSE-450 = assay type: functional, cell-based; conditions: Homo sapiens;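 note: cell growth inhibition measured by a viability assay in human KYSE-450 cells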
Description: SANGER: Inhibition of human KYSE-450 cell growth in a cell viability assay.

LB996-RCC = assay type: functional, cell-based; conditions: Homo sapiens
Description: SANGER: Inhibition of human LB996-RCC cell growth in a cell viability assay.

LCLC-103H cell line = assay type: functional, cell-based, Homo sapiens; conditions: Homo sapiens, LCLC-103H
Description: SANGER: Inhibition of human LCLC-103H cell growth in a cell viability assay.

LN-405 = assay type: functional, cell-based, Homo sapiens; conditions: Homo sapiens, LN-405
Description: SANGER: Inhibition of human LN-405 cell growth in a cell viability assay.

Lu-65 = assay type: functional, cell-based; conditions: Homo sapiens;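 note: growth inhibition of Lu-65 cancer cells, read out by a cell viability assay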
Description: SANGER: Inhibition of human LU-65 cell growth in a cell viability assay.

MIA PaCa-2 = assay type: functional, cell-based, Homo sapiens; conditions: Homo sapiens, MIA PaCa-2;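 note: growth inhibition of MIA PaCa-2 cells, read out with a cell viability assay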
Description: SANGER: Inhibition of human MIA-PaCa-2 cell growth in a cell viability assay.

MLMA = assay type: functional, cell-based, Homo sapiens; conditions: Homo sapiens, MLMA;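 note: growth inhibition of MLMA cells (human), determined through a cell viability readout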
Description: SANGER: Inhibition of human MLMA cell growth in a cell viability assay.

NB69 = assay type: functional, cell-based, Homo sapiens; conditions: Homo sapiens, NB69;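 note: growth inhibition of NB69 cells, determined by a cell viability assay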
Description: SANGER: Inhibition of human NB69 cell growth in a cell viability assay.

NCI-H1395 = assay type: functional, cell-based, Homo sapiens; conditions: Homo sapiens, NCI-H1395;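 note: cell viability assay read-out quantifying reduced proliferation of human NCI-H1395 cells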
Description: SANGER: Inhibition of human NCI-H1395 cell growth in a cell viability assay.

NCI-H1792 = assay type: functional, cell-based, Homo sapiens; conditions: Homo sapiens, NCI-H1792;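 note: growth inhibition of human NCI-H1792 cells, read out as cell viability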
Description: SANGER: Inhibition of human NCI-H1792 cell growth in a cell viability assay.

NCI-H1793 = assay type: functional, cell-based, Homo sapiens; conditions: Homo sapiens, NCI-H1793;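 note: cell growth inhibition, read out by a cell viability assay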
Description: SANGER: Inhibition of human NCI-H1793 cell growth in a cell viability assay.

NCI-H2122 = assay type: functional, cell-based, Homo sapiens; conditions: Homo sapiens, NCI-H2122;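 note: growth inhibition of the cells, read out with a cell viability assay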
Description: SANGER: Inhibition of human NCI-H2122 cell growth in a cell viability assay.

NCI-H2228 = assay type: functional, cell-based, Homo sapiens; conditions: Homo sapiens, NCI-H2228;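 note: growth inhibition of human NCI-H2228 cells, read out by a cell viability assay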
Description: SANGER: Inhibition of human NCI-H2228 cell growth in a cell viability assay.

NCI-H596 = assay type: functional, cell-based, Homo sapiens; conditions: Homo sapiens, NCI-H596;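 note: growth inhibition of NCI-H596 cells, read out with a cell viability assay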
Description: SANGER: Inhibition of human NCI-H596 cell growth in a cell viability assay.

NCI-H69 = assay type: functional, cell-based; conditions: Homo sapiens;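 note: growth inhibition of the cell line, read out with a cell viability assay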
Description: SANGER: Inhibition of human NCI-H69 cell growth in a cell viability assay.

NCI-H810 = assay type: functional, cell-based, Homo sapiens; conditions: Homo sapiens, NCI-H810;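 note: IC50 reflects inhibition of cancer cell line growth, read out with a cell viability assay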
Description: SANGER: Inhibition of human NCI-H810 cell growth in a cell viability assay.

NCI-N87 = assay type: functional, cell-based, Homo sapiens; conditions: Homo sapiens, NCI-N87;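 note: growth inhibition of human NCI-N87 cells, read out with a cell viability assay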
Description: SANGER: Inhibition of human NCI-N87 cell growth in a cell viability assay.

OVCAR-3 = assay type: functional, cell-based, Homo sapiens; conditions: Homo sapiens, OVCAR-3;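 note: growth inhibition of human OVCAR-3 cells, determined by a cell viability assay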
Description: SANGER: Inhibition of human OVCAR-3 cell growth in a cell viability assay.

QIMR-WIL = assay type: functional, cell-based; conditions: Homo sapiens;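 note: growth inhibition of QIMR-WIL cells, read out with a cell viability assay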
Description: SANGER: Inhibition of human QIMR-WIL cell growth in a cell viability assay.

SF-126 = assay type: functional, cell-based, Homo sapiens; conditions: Homo sapiens, SF-126;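 note: growth inhibition of human SF126 cells, read out with a cell viability assay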
Description: SANGER: Inhibition of human SF126 cell growth in a cell viability assay.

SW1990 = assay type: functional, cell-based, Homo sapiens; conditions: Homo sapiens, SW1990;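 note: cell growth inhibition determined with a viability assay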
Description: SANGER: Inhibition of human SW1990 cell growth in a cell viability assay.

SW684 = assay type: functional, cell-based, Homo sapiens; conditions: Homo sapiens, SW684;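 note: growth inhibition of human SW684 cells, measured by a cell viability assay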
Description: SANGER: Inhibition of human SW684 cell growth in a cell viability assay.

SW756 = assay type: functional, cell-based, Homo sapiens; conditions: Homo sapiens, SW756;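 note: growth inhibition of human SW756 cells, read out with a cell viability assay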
Description: SANGER: Inhibition of human SW756 cell growth in a cell viability assay.

5637 = assay type: functional, cell-based, Homo sapiens; conditions: Homo sapiens
Description: SANGER: Inhibition of human 5637 cell growth in a cell viability assay.

BFTC-909 = assay type: functional, cell-based, Homo sapiens; conditions: Homo sapiens, BFTC-909
Description: SANGER: Inhibition of human BFTC-909 cell growth in a cell viability assay.

C32 = assay type: functional, cell-based, Homo sapiens; conditions: Homo sapiens, C32;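 note: cell viability assay, with IC50 reflecting inhibition of C32 cell growth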
Description: SANGER: Inhibition of human C32 cell growth in a cell viability assay.

TGBC1TKB = assay type: functional, cell-based, Homo sapiens; conditions: Homo sapiens, TGBC1TKB;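 note: growth inhibition of TGBC1TKB cells, read out by a cell viability assay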
Description: SANGER: Inhibition of human TGBC1TKB cell growth in a cell viability assay.

UACC-257 = assay type: functional, cell-based, Homo sapiens; conditions: Homo sapiens, UACC-257
Description: SANGER: Inhibition of human UACC-257 cell growth in a cell viability assay.

VA-ES-BJ = assay type: functional, cell-based, Homo sapiens; conditions: Homo sapiens, VA-ES-BJ;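 note: growth inhibition of the VA-ES-BJ cell line, read out by a cell viability assay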
Description: SANGER: Inhibition of human VA-ES-BJ cell growth in a cell viability assay.

CHP-212 = assay type: functional, cell-based, Homo sapiens; conditions: Homo sapiens, CHP-212
Description: SANGER: Inhibition of human CHP-212 cell growth in a cell viability assay.

OMC-1 = assay type: functional, cell-based, Homo sapiens; conditions: Homo sapiens, OMC-1;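 note: growth inhibition of the OMC-1 cell line, measured by a cell viability assay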
Description: SANGER: Inhibition of human OMC-1 cell growth in a cell viability assay.

SiHa = assay type: functional, cell-based, Homo sapiens; conditions: Homo sapiens, SiHa;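 note: Viability-based readout of growth inhibition in SiHa cells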
Description: SANGER: Inhibition of human SiHa cell growth in a cell viability assay.

CC(=O)O[C@@H]1[C@@H](OC(C)=O)[C@@H](O)[C@H](Oc2c(-c3ccc(O)cc3)oc3cc(O)cc(O)c3c2=O)O[C@H]1C
IC50 (COR-L88): > 10 µM | IC50 (Ca-Ski): > 10 µM | IC50 (Ca9-22): > 10 µM | IC50 (DMS-273): > 10 µM | IC50 (DOK): > 10 µM | IC50 (DU-145): > 10 µM | IC50 (EW-11): > 10 µM | IC50 (GI-ME-N): > 10 µM | IC50 (GMS-10): > 10 µM | IC50 (GT3TKB): > 10 µM | IC50 (HCC 2998): > 10 µM | IC50 (HCT-116): > 10 µM | IC50 (HMV-2 cell line): > 10 µM | IC50 (Huh-7): > 10 µM | IC50 (IGR-1): > 10 µM | IC50 (IST-MEL1): > 10 µM | IC50 (IST-MES1): > 10 µM | IC50 (KINGS-1): > 10 µM | IC50 (KYSE-450): > 10 µM | IC50 (LB996-RCC): > 10 µM | IC50 (LCLC-103H cell line): > 10 µM | IC50 (LN-405): > 10 µM | IC50 (Lu-65): > 10 µM | IC50 (MIA PaCa-2): > 10 µM | IC50 (MLMA): > 10 µM | IC50 (NB69): > 10 µM | IC50 (NCI-H1395): > 10 µM | IC50 (NCI-H1792): > 10 µM | IC50 (NCI-H1793): > 10 µM | IC50 (NCI-H2122): > 10 µM | IC50 (NCI-H2228): > 10 µM | IC50 (NCI-H596): > 10 µM | IC50 (NCI-H69): > 10 µM | IC50 (NCI-H810): > 10 µM | IC50 (NCI-N87): > 10 µM | IC50 (OVCAR-3): > 10 µM | IC50 (QIMR-WIL): > 10 µM | IC50 (SF-126): > 10 µM | IC50 (SW1990): > 10 µM | IC50 (SW684): > 10 µM | IC50 (SW756): > 10 µM | IC50 5637: > 10 µM | IC50 (BFTC-909): > 10 µM | IC50 (C32): > 10 µM | IC50 (TGBC1TKB): > 10 µM | IC50 (UACC-257): > 10 µM | IC50 (VA-ES-BJ): > 10 µM | IC50 (CHP-212): > 10 µM

COc1cc(F)c(F)c(Nc2ccc(I)cc2F)c1NS(=O)(=O)C1(CC(O)CO)CC1 (configuration not stated)
IC50 (COR-L88): > 5 µM | IC50 (Ca-Ski): > 5 µM | IC50 (Ca9-22): 0.981 µM | IC50 (DMS-273): > 5 µM | IC50 (DOK): 0.432 µM | IC50 (DU-145): 1.06 µM | IC50 (EW-11): > 5 µM | IC50 (GI-ME-N): 1.58 µM | IC50 (GMS-10): 3.8 µM | IC50 (GT3TKB): > 5 µM | IC50 (HCC 2998): 0.0869 µM | IC50 (HCT-116): 0.524 µM | IC50 (Huh-7): 1.47 µM | IC50 (IGR-1): > 5 µM | IC50 (IST-MEL1): 1.89 µM | IC50 (IST-MES1): > 5 µM | IC50 (KINGS-1): 2.69 µM | IC50 (KYSE-450): > 5 µM | IC50 (LB996-RCC): > 5 µM | IC50 (LCLC-103H cell line): > 5 µM | IC50 (LN-405): > 5 µM | IC50 (Lu-65): 3.28 µM | IC50 (MIA PaCa-2): 2.82 µM | IC50 (MLMA): > 5 µM | IC50 (NB69): 0.557 µM | IC50 (NCI-H1395): > 5 µM | IC50 (NCI-H1792): 2.45 µM | IC50 (NCI-H1793): > 5 µM | IC50 (NCI-H2122): 2.17 µM | IC50 (NCI-H2228): > 5 µM | IC50 (NCI-H596): > 5 µM | IC50 (NCI-H69): > 5 µM | IC50 (NCI-H810): > 5 µM | IC50 (NCI-N87): > 5 µM | IC50 (OMC-1): > 5 µM | IC50 (OVCAR-3): > 5 µM | IC50 (QIMR-WIL): > 5 µM | IC50 (SF-126): > 5 µM | IC50 (SW1990): > 5 µM | IC50 (SW684): > 5 µM | IC50 (SW756): 1.23 µM | IC50 (SiHa): > 5 µM | IC50 5637: > 5 µM | IC50 (BFTC-909): > 5 µM | IC50 (C32): 0.0572 µM | IC50 (TGBC1TKB): > 5 µM | IC50 (UACC-257): 0.0667 µM | IC50 (VA-ES-BJ): > 5 µM | IC50 (CHP-212): 0.00492 µM
